Earlier results on two compounds are cited in patent US9657007B2, “Substituted aminopyrimidine compounds and methods of use” (Calitor Sciences, LLC, priority 2013, dated 2017).

Molecules are shown by their SMILES.

Data set [1] concerns model of systemic lupus erythematosis. The settings on record: in vivo.
For data set [2], the system named is mouse model of rheumatoid arthritis. The settings on record: in vivo.
In a further data set the test system is PI3Kδ. Particulars: potency range in words.
Data set [3] deals with murine model of asthma using ovalbumin-induced airway inflammation.

Turning to `O=C1NC(=O)/C(=C\c2ccc3nccnc3c2)S1` [AS 605240], the “onset of disease in a model of systemic lupus erythematosis” value in data set [1] is “delay onset of disease”. Further, the “efficacy in a mouse model of rheumatoid arthritis” value in data set [2] was “efficacious”.

On to `Cc1ccccc1-n1c(Cn2cnc3c(N)ncnc32)nc2cccc(C)c2c1=O` [IC87114], for which, in the data set with protein kinases, the “activity against any protein kinases tested” value is reported as “no activity”. In addition, the “inhibits PI3Kδ” value in the data set on PI3Kδ is reported as “high nanomolar range (triple digit)”. Besides, the “inflammation and disease in a murine model of asthma” value in data set [3] is “significantly ameliorate inflammation and disease”.
